The values that follow come from PubChem BioAssay AID256 (DTP/NCI, 2004).

The experiment concerns CD2F1 mice, L1210 leukemia ip, survival T/C. Description: NCI In Vivo Anticancer Drug Screen. Data for tumor model L1210 Leukemia (intraperitoneal) in CD2F1 (CDF1) mice. The settings on record: endpoint: mean survival time, higher = longer survival. The procedure: The antitumor activity of compounds was measured in mice bearing transplantable tumors. Survival or tumor size were measured and the results are expressed as the measurement made in the treated group (T) divided by the measurement made in the vehicle treated control group (C). The tumor model used in this assay is L1210 Leukemia (intraperitoneal) in CD2F1 (CDF1) mice

[1] abbreviates: dose: 100.0 mg/kg/injection, schedule: Q01DX001 (ip), vehicle: saline with Tween-80.
[2] abbreviates: dose: 100.0 mg/kg/injection, schedule: Q01DX009 (ip), vehicle: saline with Tween-80.
[3] abbreviates: dose: 100.0 mg/kg/injection, schedule: Q04DX002 (ip), vehicle: saline with Tween-80.
[4] abbreviates: dose: 100.0 mg/kg/injection, schedule: Q04DX003 (ip), vehicle: saline with Tween-80.
[5] abbreviates: dose: 200.0 mg/kg/injection, schedule: Q01DX009 (ip), vehicle: saline with Tween-80.
Setting [6] is: dose: 200.0 mg/kg/injection, schedule: Q04DX002 (ip), vehicle: saline with Tween-80.
Setting [7] is: dose: 200.0 mg/kg/injection, schedule: Q04DX003 (ip), vehicle: saline with Tween-80.
The mark [8] stands for this setting: dose: 400.0 mg/kg/injection, schedule: Q01DX009 (ip), vehicle: saline with Tween-80.
The mark [9] stands for this setting: dose: 400.0 mg/kg/injection, schedule: Q04DX002 (ip), vehicle: saline with Tween-80.
[10] abbreviates: dose: 400.0 mg/kg/injection, schedule: Q04DX003 (ip), vehicle: saline with Tween-80.
[11] abbreviates: dose: 100.0 mg/kg/injection, schedule: Q04DX003 (ip), vehicle: Klucel (hydroxypropylcellulose) (HPC).
The mark [12] stands for this setting: dose: 200.0 mg/kg/injection, schedule: Q04DX003 (ip), vehicle: Klucel (hydroxypropylcellulose) (HPC).
The mark [13] stands for this setting: dose: 400.0 mg/kg/injection, schedule: Q04DX003 (ip), vehicle: Klucel (hydroxypropylcellulose) (HPC).

“And” between values parts separate entries of the source, which are not always exact repeats. Equal entries are not always repeated. Inconclusive results and toxic doses are left out.

Regarding `O=[As](O)(O)Cc1ccccc1`, the T/C was 100 % of control (dose: 6.25 mg/kg/injection, schedule: Q01DX009 (ip), vehicle: Klucel (hydroxypropylcellulose) (HPC)); 89 % of control (dose: 12.5 mg/kg/injection, schedule: Q01DX009 (ip), vehicle: Klucel (hydroxypropylcellulose) (HPC)); 93 % of control (dose: 25.0 mg/kg/injection, schedule: Q01DX009 (ip), vehicle: Klucel (hydroxypropylcellulose) (HPC)).

Consider `Nc1nc2c(ncn2-c2ccccc2F)c(=O)[nH]1`, for which the T/C (dose: 25.0 mg/kg/injection, schedule: Q01DX001 (ip), vehicle: saline with Tween-80) was 102 % of control; the T/C (dose: 50.0 mg/kg/injection, schedule: Q01DX001 (ip), vehicle: saline with Tween-80) is 106 % of control; the T/C under setting [1] was 94 % of control and 98 % of control.

As for `CCCCCCCCCCNC(=O)C[n+]1cccc(C(=O)N(C)C)c1`, the T/C runs as follows: (dose: 12.5 mg/kg/injection, schedule: Q01DX009 (ip), vehicle: saline sonified) 100 % of control; (dose: 12.5 mg/kg/injection, schedule: Q04DX003 (ip), vehicle: saline) 95 % of control; (dose: 25.0 mg/kg/injection, schedule: Q01DX009 (ip), vehicle: saline sonified) 97 % of control; (dose: 25.0 mg/kg/injection, schedule: Q04DX003 (ip), vehicle: saline) 97 % of control; (dose: 50.0 mg/kg/injection, schedule: Q01DX009 (ip), vehicle: saline sonified) 102 % of control; (dose: 50.0 mg/kg/injection, schedule: Q04DX003 (ip), vehicle: saline) 101 % of control.

For the compound `COc1ccc(OC)c(NC(=S)NC(=O)c2cccc(Br)c2)c1`, the T/C under setting [1] is 93 % of control; the T/C under setting [2] was 95 % of control and 96 % of control; the T/C under setting [3] is 94 % of control and 100 % of control; the T/C under setting [4] is 95 % of control; the T/C (dose: 200.0 mg/kg/injection, schedule: Q01DX001 (ip), vehicle: saline with Tween-80) was 88 % of control; the T/C under setting [5] is 95 % of control and 100 % of control. In addition, the T/C under setting [6] is 94 % of control and 100 % of control; the T/C under setting [7] was 91 % of control; the T/C (dose: 400.0 mg/kg/injection, schedule: Q01DX001 (ip), vehicle: saline with Tween-80) is 89 % of control; the T/C under setting [8] was 92 % of control and 100 % of control; the T/C under setting [9] was 89 % of control and 100 % of control; the T/C under setting [10] was 95 % of control.

Consider `CC(C)(c1ccc(Nc2ccccc2)cc1)c1ccc(Nc2ccccc2)cc1`, for which the T/C runs as follows: under setting [11], 96 % of control; under setting [12], 96 % of control; under setting [13], 92 % of control.

With `c1ccc2sc(SCCSc3nc4ccccc4s3)nc2c1`, the T/C was 107 % of control (dose: 25.0 mg/kg/injection, schedule: Q04DX002 (ip), vehicle: saline with Tween-80); 88 % of control under setting [3]; 87 % of control under setting [6]; 87 % of control under setting [9].

Consider `COC(=O)Nc1ccc(Cl)cc1[N+](=O)[O-]`, for which the T/C reads like this: under setting [3], 95 % of control; under setting [6], 95 % of control; under setting [9], 91 % of control.

For the compound `CC(C)(C)CC1(C)NC(=O)NC1=O` (stereo not drawn), the T/C runs as follows: (dose: 100.0 mg/kg/injection, schedule: Q01DX001 (ip), vehicle: saline) 100 % of control; (dose: 200.0 mg/kg/injection, schedule: Q01DX001 (ip), vehicle: saline) 97 % of control; (dose: 400.0 mg/kg/injection, schedule: Q01DX001 (ip), vehicle: saline) 100 % of control.

Consider `CC1CC(O)C(=O)C(O[C@@H]2C[C@@H]3CC[C@@H]4[C@H](CC[C@]5(C)C(C6=CC(=O)OC6)CC[C@]45O)[C@@]3(C=O)C[C@H]2O)O1` (stereo partly drawn), for which the T/C reads like this: (dose: 6.25 mg/kg/injection, schedule: Q01DX001 (ip), vehicle: saline with Tween-80) 104 % of control; (dose: 12.5 mg/kg/injection, schedule: Q01DX001 (ip), vehicle: saline with Tween-80) 104 % of control.

In the case of `CCN(CC)CC[n+]1ccc2c(C)c3[nH]c4ccc(O)cc4c3c(C)c2c1`, the T/C is 179 % of control (dose: 3.12 mg/kg/injection, schedule: Q01DX009 (ip), vehicle: suspension in saline); 228 % of control (dose: 6.25 mg/kg/injection, schedule: Q01DX009 (ip), vehicle: suspension in saline); 170 % of control and 262 % of control (dose: 12.5 mg/kg/injection, schedule: Q01DX009 (ip), vehicle: suspension in saline); 116 % of control and 111 % of control (dose: 25.0 mg/kg/injection, schedule: Q01DX009 (ip), vehicle: suspension in saline); 102 % of control (dose: 50.0 mg/kg/injection, schedule: Q01DX009 (ip), vehicle: saline); 92 % of control (dose: 50.0 mg/kg/injection, schedule: Q01DX009 (ip), vehicle: suspension in saline).

On to `O=C(CCl)N1c2ccccc2Sc2ccccc21`, for which the T/C is 93 % of control (dose: 25.0 mg/kg/injection, schedule: Q01DX009 (ip), vehicle: water); 91 % of control (dose: 50.0 mg/kg/injection, schedule: Q01DX009 (ip), vehicle: water); 95 % of control (dose: 100.0 mg/kg/injection, schedule: Q01DX009 (ip), vehicle: water); 95 % of control (dose: 200.0 mg/kg/injection, schedule: Q01DX009 (ip), vehicle: water).

As for `Cc1cc(C)c(C(C)(C)O)c(C)c1`, the T/C by setting is: under setting [7], 98 % of control; under setting [10], 106 % of control.

As to `COC(=O)c1ccc(OCCOc2ccc(C(C)(C)CC(C)(C)C)cc2)c(N)c1`, the T/C under setting [11] is 94 % of control, the T/C under setting [12] was 100 % of control and the T/C under setting [13] was 101 % of control.

With `COc1ccc2c(c1)CCN1C2CCN2CCCC21` (stereo not drawn), the T/C reads like this: under setting [4], 98 % of control; under setting [7], 90 % of control.

As to `CCN(CC)C(=O)Cc1ccc2c3c(cccc13)CC2`, the T/C by setting is: under setting [4], 98 % of control; under setting [7], 98 % of control; under setting [10], 92 % of control.

On to `COc1cc(Cl)ccc1NC(=O)Oc1ccc(Br)cc1`, for which the T/C is, setting by setting: (dose: 50.0 mg/kg/injection, schedule: Q01DX009 (ip), vehicle: saline with Tween-80) 92 % of control; under setting [2], 96 % of control; under setting [5], 87 % of control.

`O=C1NC(=O)C(c2ccccc2)(c2ccc(O)cc2)N1` (stereo not drawn): the T/C runs as follows: under setting [2], 105 % of control; (dose: 100.0 mg/kg/injection, schedule: Q04DX003 (ip), vehicle: saline sonified) 95 % of control; under setting [5], 95 % of control; (dose: 200.0 mg/kg/injection, schedule: Q04DX003 (ip), vehicle: saline sonified) 93 % of control; under setting [8], 95 % of control; (dose: 400.0 mg/kg/injection, schedule: Q04DX003 (ip), vehicle: saline sonified) 93 % of control.

On to `O=C(O)C(CSC(c1ccccc1)(c1ccccc1)c1ccccc1)NC(c1ccccc1)(c1ccccc1)c1ccccc1` (stereo not drawn), for which the T/C (dose: 75.0 mg/kg/injection, schedule: Q01DX001 (ip), vehicle: other) was 97 % of control.

On to `CC(SC(C)c1ccccc1)c1ccccc1` (stereo not drawn), for which the T/C is, setting by setting: under setting [2], 98 % of control; under setting [4], 90 % of control; under setting [5], 98 % of control; under setting [7], 93 % of control; under setting [8], 102 % of control; under setting [10], 90 % of control.

On to `CC(C)(C)COC(=O)Nc1cccc(O)c1`, for which the T/C is, setting by setting: under setting [4], 96 % of control; under setting [7], 95 % of control; under setting [10], 102 % of control.
